Results published in patent US20100179130A1, “USE OF PIPERINE AND DERIVATIVES THEREOF FOR THE THERAPY OF NEUROLOGICAL CONDITIONS” (SYNGIS Bioscience GmbH & Co. KG, priority 2007, published 2010).

Experiments:
SH-SY5Y neuronal cells [1] = experiment: In vitro viability assay, cells stably transfected with constitutive Renilla luciferase; settings: 1 μM, 5 h
Excerpt: The viability assay allows for further assessment of test compounds regarding their effect on cells such as neurons. […] Subsequently, the signal generated by the reporter construct serves as a readout for the viability of the cells in the presence of the test compound. The assay enables the evaluation of potential neurotoxic effects of the test compound itself.
The effect of a compound on the viability of neuronal cells can be assayed in vitro by measuring the survival of neuronal cells transfected with a reporter construct under a constitutive promoter. SH-SY5Y neuronal cells stably transfected with a Renilla luciferase construct under the SV40 promoter were seeded in 96-well plates at a density of 2.5×10^4 cells per well. Following overnight incubation the cells were stimulated with medium containing piperine or vehicle. Staurosporine (0.1 μM) served as positive control. The Renilla luciferase activity was measured 5 h later using a luminometer (Berthold Technologies, Mithras LB 940). Piperine was tested in a range from 0.1 nM to 100 μM final concentration.

[2] = test system: motoneural cell line NSC-34; experiment: Anti-apoptosis assay on motoneural cell line, staurosporine induced apoptosis, Caspase-Glo 3/7; format: cell-based; settings: for degree of apoptosis relative to the staurosporine control: compound 1 μM in the presence of staurosporine 0.1 μM
Experimental: Instead of the SH-SY5Y cells used in Example 3 and 4, this analysis was performed with motoneural cell line NSC-34. […] Incubation with staurosporine (SP; 0.1 μM) alone served as positive control and incubation with vehicle served as negative control. The degree of apoptosis relative to the staurosporine control is shown in FIG. 4 (vehicle (sham): 6%; staurosporine (SP): 100%; piperine plus staurosporine: 70%; derivative B plus staurosporine: 55%; derivative E plus staurosporine: 75%; derivative G plus staurosporine: 76%; derivative K plus staurosporine: 83%; derivative S plus staurosporine: 77%; derivative U plus staurosporine: 71%).

neural stem cells = experiment: In vitro differentiation assay on adult neural stem cells (beta-III-tubulin promoter firefly/Renilla dual luciferase reporter); format: cell-based, rat; settings: for differentiation of neural stem cells to neurons, dose dependence: 0.2 μM up to 25, 50 or 100 μM, compared with sham and 1 μM retinoic acid; for Stimulation factor for differentiation of neural stem cells / fold induction at 1 µM: 1 μM final compound concentration, in comparison to sham treatment; for fold induction at 1 µM: Rattus norvegicus, Neural stem cell, read-out: Stimulation factor for differentiation of neural stem cells
Excerpt: The neuroregenerative effect of the compounds according to the present invention can be assayed in vitro by measuring their stimulation of the differentiation of neural stem cells. Therefore, adult neural stem cells have to be isolated and subsequently cultivated in a suitable culture medium. After several passages in vitro the stem cells have to be co-transfected with a DNA construct coding for two discriminable reporter proteins one of them under the control of a constitutive promoter and the other under the control of a beta-III-tubulin promoter. The beta-III-tubulin promoter is induced during the process of neural stem cell differentiation; therefore the reporter protein under the control of this promoter serves as a marker for the stem cell differentiation in such an in vitro dual reporter assay (Schneider et al., J Clin Investigation 2005; 115:2083-2098). The person skilled in the art knows several suitable constitutive promoters such as the SV40-promoter, the TK-promoter, or the CMV-promoter. As discriminable reporter proteins for such a dual reporter assay one can use discriminable luciferases such as firefly luciferase and Renilla luciferase. The transfected cells have to be incubated with the test compound and with a positive and negative controls for normalization and background correction. As a positive control compound one can use retinoic acid (Guan et al., Cell Tissue Res. 2001; 305:171-176; Jacobs et al., Proc. Natl. Acad. Sci. USA 2006; 103:3902-3907), a suitable negative control is the sham treatment of the cells. The neroregenerative activity of the test compound is determined as the ratio of the signal of the beta-III-tubulin promoter controlled reporter versus the signal of the constitutively expressed reporter and is expressed as fold from the control. This assay is suitable to assess the neuroregenerative activity of piperine and derivatives thereof, but also can be used to screen for other potential neuroregenerative compounds. Preferably, such a screening can be used to test compounds which are already known to be suitable as a medicament in terms of its toxicology, bioavailability, solubility, stability etc.
Neural stem cells were isolated from the subventricular zone of 4 week-old male Wistar rats as described (Maurer et al, Proteome Sci. 2003; 1:4). Cells were cultivated in Neurobasal medium (Invitrogen) supplemented with B27 (Invitrogen), 2 mM L-glutamine, 100 units/ml penicillin, 100 units/ml streptomycin, 20 ng/ml […] (EGF), 20 ng/ml fibroblast growth factor-2 (FGF-2), and 2 μg/ml heparin. Once a week the neural stem cells were passaged and experiments were performed after 4 weeks in vitro. For DNA transfection, the cells were dissociated and plated on poly-L-ornithin/laminin-coated 96-well plates at a density of 50.000 cells/well. Cotransfection with the pGL3-p-βIII-tubulin vector (100 ng/well) and the pRL SV40 vector (100 ng/well) was carried out according to the FuGene6 Transfection protocol (Roche). The pRL SV40 vector (Promega) served as an internal control vector.
To amplify the class III β-tubulin gene promoter (fragment −450-+54), rat genomic DNA was used as a template for PCR (Dennis et al., Gene 2002; 294:269-277). The amplified fragment was inserted into the Mlu I/Xho I site of the pGL3-Basic firefly luciferase reporter vector (Promega) to generate the pGL3-p-βIII-tubulin experimental vector.
After overnight incubation, the plate was decanted and given in 8-fold replicates fresh medium containing piperine (Sigma) or vehicle. As a positive control for in vitro differentiation, stem cells were treated by adding 1 μM retinoic acid (Sigma) to the medium missing the mitogens.
After 48 hrs, the cells were harvested to prepare the cellular extracts for luciferase assay following the directions of the manufacturer (Promega). […]

SH-SY5Y neuronal cells [3] = experiment: In vitro anti-apoptosis assay, staurosporine induced apoptosis, Caspase-Glo 3/7; format: cell-based, human; settings: for degree of apoptosis relative to the staurosporine control: compound 1 μM in the presence of staurosporine 0.1 μM

Compound	differentiation of neural stem cells to neurons, dose dependence (neural stem cells)	degree of apoptosis relative to the staurosporine control (SH-SY5Y neuronal cells [3]; SH-SY5Y) [%]	fold induction at 1 µM (neural stem cells)	other results
O=C(C=Cc1ccc2c(c1)OCCCO2)N1CCCCCC1 [1-Azepan-1-yl-3-(3,4-dihydro-2H-benzo[b][1,4]dioxepin-7-yl)-propenone]	significantly stimulates	83		viability of neuronal cells (SH-SY5Y neuronal cells [1]): did not show reduced viability; degree of apoptosis relative to the staurosporine control [2]: 83%; Stimulation factor for differentiation of neural stem cells (neural stem cells): 6.1 x-fold
NC1(C(=O)/C=C/c2ccc3c(c2)OCO3)CCCCCC1 [1-(3-trans-benzo-1,3-dioxol-5-ylacryloyl)cycloheptylamine]	significantly stimulates	49	4	degree of apoptosis relative to the staurosporine control [2]: 55%
COc1cccc(NC(=O)/C=C/c2ccc(Cl)cc2)c1 [SB366791, reference compound]				inhibition of the neuroregenerative effect of piperine (neural stem cells; SB366791 10 μM co-incubated with 10 μM piperine): did not result in any inhibition; inhibition of the neuroprotective effect of piperine (SH-SY5Y neuronal cells [3]; SB366791 10 nM to 100 nM with piperine 10 μM and staurosporine 0.1 μM): did not result in any inhibition
CCCOc1ccc(C=CC(=O)NC2CCCC2)cc1 [N-cyclopentyl-3-(4-propoxyphenyl)acrylamide]	significantly stimulates		1.6	
CN[C@@H]1C[C@H]2O[C@@](C)([C@@H]1OC)n1c3ccccc3c3c4c(c5c6ccccc6n2c5c31)C(=O)NC4 [staurosporine, reference compound]				degree of apoptosis relative to the staurosporine control (staurosporine alone) ([2]; staurosporine 0.1 μM alone, positive control): 100%; degree of apoptosis relative to the staurosporine control (staurosporine alone) (SH-SY5Y neuronal cells [3]; staurosporine 0.1 μM alone, positive control, SH-SY5Y): 100%
CCOc1ccc(C=CC(=O)NC2CCCO2)cc1 (stereo not shown) [3-(4-ethoxyphenyl)-N-(tetrahydro-2-furanyl)acrylamide]			1.5	
3-(Chloro-3,4-dihydro-2H-benzo[b][1,4]dioxepin-7-yl)N-cyclohexyl-acrylamide				Stimulation factor for differentiation of neural stem cells (neural stem cells): 1.7 x-fold
O=C(/C=C/c1ccc(Cl)cc1)N1CCCCC1 [(2E)-3-(4-chlorophenyl)-1-piperidylprop-2-en-1-one]	significantly stimulates	60		viability of neuronal cells (SH-SY5Y neuronal cells [1]): did not show reduced viability; degree of apoptosis relative to the staurosporine control [2]: 71%; Stimulation factor for differentiation of neural stem cells (neural stem cells): 4.4 x-fold
O=C(C=Cc1ccc2c(c1)OCO2)NC1=NCCS1 [3-Benzol[1,3]dioxol-5-yl-N-(4,5-dihydro-thiazol-2-yl)-acrylamide]	significantly stimulates	79		viability of neuronal cells (SH-SY5Y neuronal cells [1]): did not show reduced viability; degree of apoptosis relative to the staurosporine control [2]: 76%; Stimulation factor for differentiation of neural stem cells (neural stem cells): 4.6 x-fold
O=C(C=Cc1cc(Cl)c2c(c1)OCCO2)N1CCCCCC1 [1-Azepan-1-yl-3-(8-chloro-2,3-dihydro-benzol[1,4]dioxin-6-yl)-propenone]				Stimulation factor for differentiation of neural stem cells (neural stem cells): 1.8 x-fold
COc1cc(CNC(=O)CCCC/C=C/C(C)C)ccc1O [capsaicin, reference compound]				stimulating effect on the differentiation of neural stem cells (neural stem cells; 0.1 nM to 100 μM final concentration): no stimulating effect; anti-apoptotic effect compared to piperine (10 μM) (SH-SY5Y neuronal cells [3]; capsaicin 10 μM with staurosporine 0.1 μM): only a marginal anti-apoptotic effect
CC1CCN(C(=O)C=Cc2ccc3c(c2)OCO3)CC1 [1-[3-(1,3-benzodioxol-5-yl)acryloyl]-4-methylpiperidine]	significantly stimulates		1.9	
O=C(C=Cc1ccc2c(c1)OCO2)NC1CC2CCC1C2 (stereo not shown) [3-(1,3-benzodioxol-5-yl)-N-bicyclo[2.2.1]hept-2-ylacrylamide]			1.7	
O=C(C=Cc1ccc2c(c1)OCO2)NC1CCCCCCC1 [3-(1,3-benzodioxol-5-yl)-N-cyclooctylacrylamide]	significantly stimulates	77	5	degree of apoptosis relative to the staurosporine control [2]: 75%
O=C(/C=C/c1ccc2c(c1)OCO2)N1CCCC1 [1-(3-trans-benzo-1,3-dioxol-5-ylacryloyl)pyrrolidine]	significantly stimulates	72	1.3	
COc1ccc(C=CC(=O)NC2CCCCCCC2)cc1 [N-cyclooctyl-3-(4-methoxyphenyl)acrylamide]	significantly stimulates		1.9	
O=C(C=Cc1ccc2c(c1)OCO2)NCC1CCCO1 (stereo not shown) [3-(1,3-benzodioxol-5-yl)-N-(tetrahydro-2-furanylmethyl)acrylamide]			1.5	
CCOc1ccc(C=CC(=O)NC2CCCCC2)cc1 [N-cyclohexyl-3-(4-ethoxyphenyl)acrylamide]			1.7	
CCCOc1ccc(C=CC(=O)NC2CCCCCC2)cc1 [N-cycloheptyl-3-(4-propoxyphenyl)acrylamide]	significantly stimulates		1.7	
CCCOc1ccc(C=CC(=O)N2CCCCC2)cc1 [1-[3-(4-propoxyphenyl)acryloyl]piperidine]	significantly stimulates	81	4	degree of apoptosis relative to the staurosporine control [2]: 77%
CCCOc1ccc(C=CC(=O)N2CCCCCC2)cc1 [1-[3-(4-propoxyphenyl)acryloyl]azepane]			2.3	
O=C(C=Cc1cc(Cl)c2c(c1)OCCCO2)N1CCCCCC1 [1-Azepan-1-yl-3-(9-chloro-3,4-dihydro-2H-benzo[b][1,4]dioxepin-7-yl)-propenone]				Stimulation factor for differentiation of neural stem cells (neural stem cells): 2.2 x-fold
NC1(C(=O)/C=C/c2ccc3c(c2)OCO3)CCCC1 [1-(3-trans-benzo-1,3-dioxol-5-ylacryloyl)cyclopentylamine]	significantly stimulates	77	1.4	
